This data set is described as follows: in-vitro dissolution, rotating blade method at 75 rpm according to USP24. In kind it is physicochemical.

As for `CC(C)OC(=O)C(C)(C)Oc1ccc(C(=O)c2ccc(Cl)cc2)cc1` [fenofibrate, 2-[4-(4-chlorobenzoyl)phenoxy]-2-methyl propionate], the “% release of fenofibrate” value (water with 0.025 M sodium lauryl sulfate, 1200 ml, 5 min) is reported as 8-10%; the “% release of fenofibrate” value (water with 0.025 M sodium lauryl sulfate, 1200 ml, 10 min) is given as 16-22%; the “% release of fenofibrate” value (water with 0.025 M sodium lauryl sulfate, 1200 ml, 20 min) is 24-30%; the “% release of fenofibrate” value (water with 2% by weight polysorbate-80, 1200 ml, 5 min) is 4-8%; the “% release of fenofibrate” value (water with 2% by weight polysorbate-80, 1200 ml, 10 min) was 19-22%; the “% release of fenofibrate” value (water with 2% by weight polysorbate-80, 1200 ml, 20 min) is recorded as 30-32%. In addition, the “% release of fenofibrate” value (water with 2% by weight polysorbate-80, 1200 ml, 30 min) was 36-38%.

The values are drawn from patent publication US6828334B2, “Fenofibrate-cyclodextrin inclusion complexes and their pharmaceutical composition” (USV Limited, priority 2002, dated 2004).
